Format in all cases: cell-based
Assay [1] has as its target T1, protein kinases (human kinome) (Homo sapiens, UniProt O95835).
T1 sequence (O95835 1-1130): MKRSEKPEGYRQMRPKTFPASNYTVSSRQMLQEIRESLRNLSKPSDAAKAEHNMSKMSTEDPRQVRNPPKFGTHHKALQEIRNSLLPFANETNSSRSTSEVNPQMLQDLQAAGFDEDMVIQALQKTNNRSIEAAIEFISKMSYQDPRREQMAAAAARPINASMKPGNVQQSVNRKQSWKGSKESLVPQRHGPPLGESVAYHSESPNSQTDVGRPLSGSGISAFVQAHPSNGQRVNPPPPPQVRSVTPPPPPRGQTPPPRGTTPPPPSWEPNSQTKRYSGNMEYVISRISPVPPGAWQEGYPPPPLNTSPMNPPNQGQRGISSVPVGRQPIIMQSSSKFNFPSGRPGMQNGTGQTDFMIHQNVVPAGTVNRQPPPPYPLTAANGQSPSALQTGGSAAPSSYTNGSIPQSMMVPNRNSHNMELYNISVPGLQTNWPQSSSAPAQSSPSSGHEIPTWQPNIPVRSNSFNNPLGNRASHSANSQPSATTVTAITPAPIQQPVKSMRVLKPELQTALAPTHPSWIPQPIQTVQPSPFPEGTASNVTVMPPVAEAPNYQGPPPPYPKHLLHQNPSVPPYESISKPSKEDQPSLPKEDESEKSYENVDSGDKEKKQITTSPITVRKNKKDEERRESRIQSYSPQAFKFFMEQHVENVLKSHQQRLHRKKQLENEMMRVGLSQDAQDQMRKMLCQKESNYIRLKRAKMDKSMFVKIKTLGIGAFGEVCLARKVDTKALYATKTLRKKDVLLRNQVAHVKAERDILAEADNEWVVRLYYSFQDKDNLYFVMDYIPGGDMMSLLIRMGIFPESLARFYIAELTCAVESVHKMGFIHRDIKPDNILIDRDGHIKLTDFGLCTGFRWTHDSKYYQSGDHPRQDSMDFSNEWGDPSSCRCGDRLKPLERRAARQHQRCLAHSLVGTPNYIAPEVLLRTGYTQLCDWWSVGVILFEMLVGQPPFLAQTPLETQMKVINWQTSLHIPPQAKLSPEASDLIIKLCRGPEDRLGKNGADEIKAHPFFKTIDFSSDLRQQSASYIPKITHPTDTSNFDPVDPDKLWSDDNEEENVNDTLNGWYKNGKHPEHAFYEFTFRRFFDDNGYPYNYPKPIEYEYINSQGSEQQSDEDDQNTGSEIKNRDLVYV
The note with it: LATS1 O95835.

Assay [2] addresses protein kinases (human kinome) (Homo sapiens, UniProt Q92918).
In assay [3] the target is protein kinases (human kinome) (Homo sapiens, UniProt P49840). The note with it: GSK3A P49840.
Chain of protein kinases (human kinome) (Homo sapiens, UniProt P49840) (P49840 whole entry): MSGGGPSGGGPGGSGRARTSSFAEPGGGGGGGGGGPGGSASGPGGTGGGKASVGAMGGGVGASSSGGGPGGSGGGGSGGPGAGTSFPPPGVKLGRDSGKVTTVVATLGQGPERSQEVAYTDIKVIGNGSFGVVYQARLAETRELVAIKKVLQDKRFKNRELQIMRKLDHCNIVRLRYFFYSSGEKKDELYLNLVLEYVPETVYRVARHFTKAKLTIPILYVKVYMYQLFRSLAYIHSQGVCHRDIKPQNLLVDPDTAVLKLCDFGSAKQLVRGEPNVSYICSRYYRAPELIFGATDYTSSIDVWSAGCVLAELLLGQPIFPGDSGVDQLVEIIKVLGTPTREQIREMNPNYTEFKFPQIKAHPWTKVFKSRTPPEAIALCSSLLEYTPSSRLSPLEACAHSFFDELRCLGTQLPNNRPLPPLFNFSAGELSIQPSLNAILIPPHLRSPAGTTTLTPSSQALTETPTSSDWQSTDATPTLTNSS
The target in assay [4] is protein kinases (human kinome) (Homo sapiens, UniProt Q15131). The settings on record: for logFC: CDK10 (Q15131-1).
Chain of protein kinases (human kinome) (Homo sapiens, UniProt Q15131) (Q15131 whole entry): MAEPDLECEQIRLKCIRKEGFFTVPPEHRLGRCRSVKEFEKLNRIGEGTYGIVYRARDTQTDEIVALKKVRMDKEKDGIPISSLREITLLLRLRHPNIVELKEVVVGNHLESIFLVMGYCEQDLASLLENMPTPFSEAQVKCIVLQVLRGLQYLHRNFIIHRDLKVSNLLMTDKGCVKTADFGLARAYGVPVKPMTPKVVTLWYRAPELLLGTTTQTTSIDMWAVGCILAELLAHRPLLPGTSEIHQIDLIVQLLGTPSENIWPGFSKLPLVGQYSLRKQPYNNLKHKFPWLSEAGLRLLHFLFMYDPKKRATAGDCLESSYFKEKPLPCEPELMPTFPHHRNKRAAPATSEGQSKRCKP
The target of assay [5] is protein kinases (human kinome) (Homo sapiens, UniProt Q9BVS4). The note with it: RIOK2 Q9BVS4.
Chain of protein kinases (human kinome) (Homo sapiens, UniProt Q9BVS4) (Q9BVS4 whole entry): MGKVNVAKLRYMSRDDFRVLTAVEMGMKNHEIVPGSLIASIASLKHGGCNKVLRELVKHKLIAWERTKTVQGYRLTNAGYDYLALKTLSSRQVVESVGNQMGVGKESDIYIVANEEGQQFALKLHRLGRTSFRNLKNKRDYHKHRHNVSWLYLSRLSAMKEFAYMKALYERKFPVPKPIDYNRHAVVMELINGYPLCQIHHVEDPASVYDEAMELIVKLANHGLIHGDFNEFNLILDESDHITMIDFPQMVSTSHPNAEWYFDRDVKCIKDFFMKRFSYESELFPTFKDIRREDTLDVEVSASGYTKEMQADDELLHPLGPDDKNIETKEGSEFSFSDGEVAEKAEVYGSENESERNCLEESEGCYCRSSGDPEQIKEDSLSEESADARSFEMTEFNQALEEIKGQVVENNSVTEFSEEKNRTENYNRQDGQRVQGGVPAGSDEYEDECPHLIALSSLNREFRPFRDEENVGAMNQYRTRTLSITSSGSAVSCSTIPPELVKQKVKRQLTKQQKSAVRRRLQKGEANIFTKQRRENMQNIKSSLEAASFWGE
For assay [6], the target named is T2, protein kinases (human kinome) (Homo sapiens, UniProt Q9H8X2).
T2 sequence (Q9H8X2 1-491): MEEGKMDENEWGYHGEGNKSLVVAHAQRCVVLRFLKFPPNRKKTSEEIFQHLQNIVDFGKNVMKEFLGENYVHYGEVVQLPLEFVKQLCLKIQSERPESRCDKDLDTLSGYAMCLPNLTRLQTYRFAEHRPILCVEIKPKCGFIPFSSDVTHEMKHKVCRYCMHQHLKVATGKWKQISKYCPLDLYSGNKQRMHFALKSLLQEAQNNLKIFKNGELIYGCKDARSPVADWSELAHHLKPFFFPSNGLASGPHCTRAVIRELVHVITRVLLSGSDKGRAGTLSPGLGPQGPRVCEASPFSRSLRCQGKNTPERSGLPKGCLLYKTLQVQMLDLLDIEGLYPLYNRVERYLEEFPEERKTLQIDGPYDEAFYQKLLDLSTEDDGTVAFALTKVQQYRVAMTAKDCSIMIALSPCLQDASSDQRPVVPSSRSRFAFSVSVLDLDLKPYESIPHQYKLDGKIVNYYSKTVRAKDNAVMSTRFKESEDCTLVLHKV
The note with it: IPPK (Q9H8X2).

Where two headings read alike, the source gives them in different places.

Chain of protein kinases (human kinome) (Homo sapiens, UniProt Q92918) (Q92918 whole entry): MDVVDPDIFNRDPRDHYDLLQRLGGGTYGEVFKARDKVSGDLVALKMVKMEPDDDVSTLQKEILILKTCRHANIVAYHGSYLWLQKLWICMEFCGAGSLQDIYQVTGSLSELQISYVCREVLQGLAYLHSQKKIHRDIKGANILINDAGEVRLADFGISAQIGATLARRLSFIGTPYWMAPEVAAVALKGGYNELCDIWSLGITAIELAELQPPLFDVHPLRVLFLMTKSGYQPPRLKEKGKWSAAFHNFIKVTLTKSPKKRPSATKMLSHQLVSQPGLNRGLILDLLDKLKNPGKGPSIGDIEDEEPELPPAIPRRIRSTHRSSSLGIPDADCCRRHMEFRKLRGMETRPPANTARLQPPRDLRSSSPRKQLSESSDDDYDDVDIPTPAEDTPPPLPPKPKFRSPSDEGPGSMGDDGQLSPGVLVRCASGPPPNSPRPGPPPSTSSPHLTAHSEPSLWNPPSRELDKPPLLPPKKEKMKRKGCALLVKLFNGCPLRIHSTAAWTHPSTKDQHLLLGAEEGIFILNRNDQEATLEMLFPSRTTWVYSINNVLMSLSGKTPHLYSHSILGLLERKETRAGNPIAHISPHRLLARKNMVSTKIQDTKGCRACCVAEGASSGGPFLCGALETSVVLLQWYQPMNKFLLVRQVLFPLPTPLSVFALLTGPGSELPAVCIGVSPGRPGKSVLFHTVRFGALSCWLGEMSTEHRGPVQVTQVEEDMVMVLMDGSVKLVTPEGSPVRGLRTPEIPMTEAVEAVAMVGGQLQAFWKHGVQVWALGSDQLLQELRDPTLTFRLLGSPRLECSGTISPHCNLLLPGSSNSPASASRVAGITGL

In assay [1] (experiment wp160, 8 hr), `Cc1ccc(NC(=O)c2cccc(C(F)(F)F)c2)cc1N1Cc2cnc(Nc3ccc(N4CCN(Cc5cn(CCCCCOc6cccc7c6C(=O)N(C6CCC(=O)NC6=O)C7=O)nn5)CC4)nc3)nc2N(C)C1=O` (centres unmarked) [DB0646, N-(3-(7-((6-(4-((1-(5-((2-(2,6-Dioxopiperidin-3-yl)-1,3-dioxoisoindolin-4-yl)oxy)pentyl)-1H-1,2,3-triazol-4-yl)methyl)piperazin-1-v)pyridin-3-yl)amino)-1-methyl-2-oxo-1,4-dihydropyrimido[4,5-d]pyrimidin-3(2H)-yl)-4-methylphenyl)-3-(trifluoromethyl)benzamide] showed a logFC of −0.3382. Also, the “logFC LATS1” value in assay [1] (experiment wp160, 8 hr) is listed as −0.3382. The “logFC MAP4K1 (Q92918)” value in assay [2] (experiment wp045) is recorded as −0.4789; in assay [2] (experiment wp152) it was −0.3638; in assay [2] (experiment wp160, 4 hr) it was −0.3228; in assay [2] (experiment wp160, 8 hr), −0.5785.

On to `NC(=O)c1c(F)cccc1Nc1nc(Nc2ccc(S(=O)(=O)NCCOCCOCCOCCOCCNc3cccc4c3C(=O)N(C3CCC(=O)NC3=O)C4=O)cc2)ncc1Br` (centres unmarked) [TMX.02.138], for which, in assay [3] (experiment wp146), the logFC is recorded as −0.8225 and the “logFC GSK3A” value is given as −0.8225.

Regarding `Nc1ncc(-c2ccc(S(=O)(=O)N(CCCNC(=O)CCOCCOCCOCCOCCOCCNc3cccc4c3C(=O)N(C3CCC(=O)NC3=O)C4=O)C3CC3)cc2)cc1-c1ccc2c(c1)CCNC2=O` (centres unmarked) [WH.10417.099], the logFC in assay [3] (experiment wp056) is given as −0.5169; in assay [3] (experiment wp103), −0.443; in assay [3] (experiment wp105) it was −0.4499; in assay [3] (experiment wp107) it was −0.4697. In addition, the “logFC GSK3A” value in assay [3] (experiment wp056) is reported as −0.5169; in assay [3] (experiment wp103), −0.443; in assay [3] (experiment wp105), −0.4499; in assay [3] (experiment wp107) it was −0.4697.

On to `Nc1ncnc2c1c(-c1ccc(Oc3ccccc3)cc1)nn2[C@H]1CC[C@H](N2CCN(CCOCCNC(=O)CNc3cccc4c3C(=O)N(C3CCC(=O)NC3=O)C4=O)CC2)CC1` (some centres unmarked) [SB1.G.181], for which, in assay [1] (experiment wp071), the logFC is −1.273 and the “logFC LATS1” value is listed as −1.273.

On to `CC(C)S(=O)(=O)c1ccccc1Nc1nc(Nc2ccc(N3CCN(CCOCCOCCNC(=O)CNc4cccc5c4C(=O)N(C4CCC(=O)NC4=O)C5=O)CC3)cc2)ncc1Cl` (centres unmarked) [TL12.186], for which the logFC in assay [4] (experiment wp131) is −0.935; in assay [5] (experiment wp131) it was −0.9134; in assay [5] (experiment wp137) it was −0.7728; in assay [6] (experiment wp131) it was −0.6311. Besides, in assay [4] (experiment wp131), the “logFC of CDK10 (Q15131-1)” value is recorded as −0.935. The figures for the “logFC MAP4K1 (Q92918)” value in assay [2] (experiment wp131) and in assay [2] (experiment wp137) were −0.4581 and −0.6136, respectively. The “logFC RIOK2” value in assay [5] (experiment wp131) is listed as −0.9134; in assay [5] (experiment wp137), −0.7728.

On to `Cc1ncsc1-c1ccc([C@H](C)NC(=O)[C@@H]2C[C@@H](O)CN2C(=O)[C@@H](NC(=O)CCCCCN2CCN(c3ccc(Nc4ncc5scc(-c6cccc(NS(C)(=O)=O)c6)c5n4)cc3)CC2)C(C)(C)C)cc1` [RSS0680, (2S,4R)-1-((S)-3,3-Dimethyl-2-(6-(4-(4-((7-(3-(methylsulfonamido)phenyl)thieno[3,2-d]pyrimidin-2-yl)amino)phenyl)piperazin-1-yl)hexanamido)butanoyl)-4-hydroxy-N—((S)-1-(4-(4-methylthiazol-5yl)phenyl)ethyl)pyrrolidine-2-carboxamide], for which, in assay [1] (experiment wp117), the logFC is given as −0.4143 and the “logFC LATS1” value is listed as −0.4143.

As for `O=C1CCC(N2C(=O)c3cccc(NCCCCCCCCN4CCC(NC(=O)c5[nH]ncc5NC(=O)c5c(Cl)cccc5Cl)CC4)c3C2=O)C(=O)N1` (centres unmarked) [MFH.5.126.1], in assay [3] (experiment wp076), the logFC is given as −0.7531 and the “logFC GSK3A” value was −0.7531. Moreover, in assay [5] (experiment wp076), the logFC is −0.7874 and the “logFC RIOK2” value was −0.7874.

As to `Cc1ncsc1-c1ccc([C@H](C)NC(=O)[C@@H]2C[C@@H](O)CN2C(=O)[C@@H](NC(=O)CCOCCOCCN2CCN(c3ccc(Nc4ncc(Cl)c(Nc5ccccc5S(=O)(=O)C(C)C)n4)cc3)CC2)C(C)(C)C)cc1` [FMF.06.098.1], the logFC in assay [6] (experiment wp114) is recorded as −0.5773.

For `Cc1cc(Nc2ncc(Br)c(Nc3cccc(F)c3C(N)=O)n2)ccc1S(=O)(=O)NCCOCCOCCOCCOCCNc1cccc2c1C(=O)N(C1CCC(=O)NC1=O)C2=O` (centres unmarked) [TMX.02.174], in assay [3] (experiment wp146), the logFC was −0.7133 and the “logFC GSK3A” value is listed as −0.7133.

For the compound `CNC(=O)c1ccccc1Nc1cc(Nc2ccc(N3CCN(CCOCCOCCNC(=O)CNc4cccc5c4C(=O)N(C4CCC(=O)NC4=O)C5=O)CC3)cc2OC)ncc1C(F)(F)F` (centres unmarked) [MFH.5.103.1], in assay [4] (experiment wp076), the logFC is recorded as −0.6988 and the “logFC of CDK10 (Q15131-1)” value is −0.6988.

For the compound `O=C(COc1cccc2c1C(=O)N(C1CCC(=O)NC1=O)C2=O)NCCCCCCCN1CCc2cc(Nc3ncc(C4CC4)c(NCCCNC(=O)C4CCC4)n3)ccc2C1` (centres unmarked) [BSJ.04.178], in assay [4] (experiment wp134), the logFC was −0.6546 and the “logFC of CDK10 (Q15131-1)” value was −0.6546.

As to `Cc1ccc(NC(=O)c2cccc(C(F)(F)F)c2)cc1N1Cc2cnc(Nc3ccc(N4CCN(CCCCC(=O)N[C@H](C(=O)N5C[C@H](O)C[C@H]5C(=O)N[C@@H](C)c5ccc(-c6scnc6C)cc5)C(C)(C)C)CC4)nc3)nc2N(C)C1=O` [DB1113], the “logFC MAP4K1 (Q92918)” value in assay [2] (experiment wp168) is given as −0.8463.

As for `Cc1ccc(NC(=O)c2cccc(C(F)(F)F)c2)cc1N1Cc2cnc(Nc3ccc(N4CCN(CCCOc5cccc6c5C(=O)N(C5CCC(=O)NC5=O)C6=O)CC4)nc3)nc2N(C)C1=O` (centres unmarked) [DB0662], the “logFC MAP4K1 (Q92918)” value in assay [2] (experiment wp168) is recorded as −0.4067.

Turning to `CCc1cnn2c(N(Cc3ccc(N)nc3)C(=O)CCOCCOCCOCCNC(=O)CNc3cccc4c3C(=O)N(C3CCC(=O)NC3=O)C4=O)cc(N3CCCC[C@H]3CCO)nc12` (some centres unmarked) [MFH.5.115.2], in assay [5] (experiment wp076), the logFC is recorded as −0.8067 and the “logFC RIOK2” value was −0.8067.

For the origin of these results see patent publication US20240269139A1, “COMPOUNDS FOR TARGETED PROTEIN DEGRADATION OF KINASES” (DANA-FARBER CANCER INSTITUTE, INC., priority 2020, published 2024).
